Source: patent US20140162285A1, “Methods of Modulating Vesicular Trafficking” (The General Hospital Corporation, priority 2009, published 2014)
Peptide text beside a SMILES is read from it. * marks the point of attachment. Biotin = O=C1N[C@H]2[C@H](CS[C@H]2CCCCC(=O)*)N1

How the values were obtained:
[1] = target: T1, GST-ARNO(wt) (Homo sapiens, UniProt Q99418); assay: a2N-derived peptide pull-down assay with GST-ARNO(wt); assay type: binding; design: key to interaction with ARNO (asterisk mark in Table 1): The interacting peptides are indicated in bold with an asterisk (*)
T1 construct: i) 1-400aa, full length ARNO(wt); made in house; host or cells: E. coli BL21(DE3)
T1 sequence (Q99418 1-400): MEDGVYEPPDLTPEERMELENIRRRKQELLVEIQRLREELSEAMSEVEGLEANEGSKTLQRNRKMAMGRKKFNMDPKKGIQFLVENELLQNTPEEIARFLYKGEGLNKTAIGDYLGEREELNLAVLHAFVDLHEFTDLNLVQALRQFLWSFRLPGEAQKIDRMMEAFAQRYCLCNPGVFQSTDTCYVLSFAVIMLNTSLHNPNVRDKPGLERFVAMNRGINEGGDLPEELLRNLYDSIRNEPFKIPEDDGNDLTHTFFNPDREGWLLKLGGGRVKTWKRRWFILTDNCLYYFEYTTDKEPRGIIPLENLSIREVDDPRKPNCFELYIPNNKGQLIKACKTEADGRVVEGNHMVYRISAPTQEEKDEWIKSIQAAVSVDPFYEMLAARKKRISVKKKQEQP
Experimental: FIG. 2A is an image of a Western blot showing the results of an a2N-derived peptide pull-down assay. The indicated a2N-derived peptides were immobilized on streptavidin-beads and incubated with purified recombinant GST-ARNO(wt). Interacting complexes were eluted and analyzed by Western blotting using monoclonal anti-GST antibodies.
FIG. 2B is an image of a Western blot showing the results of a pull-down assay with selected a2N-derived interacting peptides incubated with either GST (negative control) or GST-ARNO(wt). The first two lanes show the patterns obtained when either GST-only (lane 1) or GST-ARNO(wt) (lane 2) were loaded onto the gel.
Peptides were synthesized, purified by HPLC and analyzed by mass spectrometry in the MGH Peptide/Protein Core Facility. All a2N-derived peptides were synthesized with a biotin-tag on the N-terminus for immobilization on streptavidin-agarose beads and with an additional C-terminal cysteine residue for immobilization on beads using sulfhydryl-specific crosslinkers. A peptide corresponding to the PB-domain of ARNO was synthesized containing either a non-phosphorylated or a phosphorylated Ser392 residue. Peptide stock solutions were prepared in DMSO at 5 mM concentration and stored at −20° C. […]

[2] = target: T2, PH-domain of ARNO (Homo sapiens, UniProt Q99418); assay: a2N-derived peptide pull-down with GST-PH domain; assay type: binding
T2 construct: iv) 253-378aa, plekstrin-homology (PH) domain; made in house; host or cells: E. coli BL21(DE3)
T2 sequence (Q99418 253-378): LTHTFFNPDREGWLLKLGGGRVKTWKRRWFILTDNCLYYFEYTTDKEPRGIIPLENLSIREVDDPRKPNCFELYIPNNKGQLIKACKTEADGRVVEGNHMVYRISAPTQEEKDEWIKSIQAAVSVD
Experimental: FIGS. 5A-C are a set of three images of Western blots showing the identification of interaction motif of a2N that is involved in specific binding with the Sec7 domain of ARNO. 5A, The catalytic Sec7 domain of ARNO interacts with two a2N-derived peptides, a2N-01 and a2N-03, in pull-down experiments. The peptide pull-down assay was performed with six a2N-derived interaction peptides immobilized on streptavidin-beads and incubated with purified recombinant GST-only or GST-Sec7 domain. Interacting complexes were eluted and analyzed by Western blotting using monoclonal anti-GST antibodies as described below. The loading controls for GST-only (lane 1) or GST-Sec7 (lane 2) are shown. […] The peptide pull-down assay was performed with peptides a2N-01 and a2N-03 immobilized on streptavidin-beads and incubated with purified recombinant GST-PH domain (5B) or GST-PB domain (5C). Interacting complexes were eluted and analyzed by Western blotting using monoclonal anti-GST antibodies. […]
These a2N-derived peptides were immobilized by an N-terminal biotin-tag, which ensured the same efficiency and equivalent binding to streptavidin-agarose beads. […] After washing beads four times in ice-cold binding buffer, the interacting complexes were eluted by boiling in SDS-PAGE sample buffer for 10 min at 95° C., resolved by SDS-PAGE and analyzed by Western blotting using monoclonal anti-GST antibody. […]

CSCC[C@H](NC(=O)CCCC[C@@H]1SC[C@@H]2NC(=O)N[C@@H]21)C(=O)NCC(=O)N[C@@H](CO)C(=O)N[C@@H](CC(C)C)C(=O)N[C@@H](Cc1ccccc1)C(=O)N[C@@H](CCCNC(=N)N)C(=O)N[C@@H](CO)C(=O)N[C@@H](CCC(=O)O)C(=O)N[C@@H](CO)C(=O)N[C@@H](CCSC)C(=O)N[C@@H](CS)C(=O)N[C@@H](CC(C)C)C(=O)N[C@@H](C)C(=O)N[C@@H](CCC(N)=O)C(=O)N[C@@H](CC(C)C)C(=O)N[C@@H](Cc1ccccc1)C(=O)N[C@@H](CC(C)C)C(=O)N[C@@H](CS)C(=O)O [a2N-01, Bio-MGSLFRSE SMCLAQLFL-Cys] (Biotin-MGSLFRSESMCLAQLFLC-OH; N-terminus and C-terminus assumed)
interaction of a2N-derived peptide with GST-ARNO(wt) in pull-down ([1]; Western blot anti-GST, GST-only as control): specific interaction
interaction with ARNO (asterisk mark in Table 1) ([1]; biotin-tagged peptides on streptavidin beads): Bio-MGSLFRSE SMCLAQLFL-Cys *
interaction with PH-domain of ARNO [2]: does not interact
